Test results taken from paper PMC7822874, “Chemoprotective antimalarials identified through quantitative high-throughput screening of Plasmodium blood and liver stage parasites” (Scientific Reports, 2021).

Experiments:
[1] = in vitro; conditions: human, hepg2 cells
[2] = test system: HepG2; conditions: human, hepg2 cells, 48 h
[3] = test system: Plasmodium falciparum Dd2 asexual blood stage parasites; assay: microbe, parasite or virus in culture; set-up: species or system Plasmodium falciparum Dd2 in human erythrocytes; single determination (one 11-point concentration-response curve); conditions: Plasmodium falciparum, DD2, Erythrocyte, 72 h; read-out: AC50

| Compound | CC50 at 48 h [1] [µM] | Log AC50 (M) [2] [M] | AC50 [3] [µM] |
| --- | --- | --- | --- |
| FC(F)(F)c1cnc(N2CCCN(C(S)=Nc3ccccc3)CC2)c(Cl)c1 [MLS000833545-01] | 43.2 | -4.3643 | 4.73 |
| CCCC1=Nc2cc(C(=O)NCCCN3CCCCC3CC)ccc2Sc2ccc(C)cc21 (centres unmarked) [NCGC00424661-01] | 43.2 | -4.3643 | 9.44 |
| CC(=O)C1=C(c2ccc(Cl)c(Cl)c2)N(C(C)=O)n2cnnc2S1 [NCGC00137238-01] | 43.2 | -4.3643 | 3.76 |
| COC(=O)C1=C(C)NC(C)=C(C(=O)OC(C)(C)CN(C)CCC(c2ccccc2)c2ccccc2)C1c1cccc([N+](=O)[O-])c1.Cl (centres unmarked) [NCGC00167492-01] | 24.3 | -4.6143 | 2.99 |
| CN1CCC(Nc2ncc3ncnc(Nc4ccc(F)c(Cl)c4)c3n2)CC1.Cl.Cl [NCGC00161422-01] | 17.2 | -4.7643 | 10.6 |
| COc1cc2nc(N3CCN(c4cc(C)ccc4C)CC3)nc(N)c2cc1OC.Cl [MLS001199642-01] | 43.2 | -4.3643 | 6.68 |
| CC1CCCN(Cc2c(O)ccc3c4c(c(=O)oc23)CCCC4)C1 (centres unmarked) [MLS000778333-01] | 12.2 | -4.9143 | 6.68 |
| Oc1cccc(C(Nc2nccs2)c2ccc3cccnc3c2O)c1 (centres unmarked) [MLS000760926-01] | 38.5 | -4.4143 | 7.5 |
| COc1cc2c(cc1OCc1ccccc1)N(C(=O)c1cc3ccccc3n1C)CC21CCN(C)CC1 [NCGC00419848-01] | 43.2 | -4.3643 | 2.11 |
| O=C(c1cc(NC(=O)C23CC4CC(CC(C4)C2)C3)cc(NC(=O)C23CC4CC(CC(C4)C2)C3)c1)N1CCCCC1 [MLS000549502-01] | 43.2 | -4.3643 | 5.96 |
| CCCCN(C)CCCNC(=O)Cn1ncc2c3ccccc3n(Cc3cc(C)ccc3C)c2c1=O [NCGC00114267-01] | 34.3 | -4.4643 | 0.75 |
| CN(C)CCCNc1c2ccccc2nc2ccccc12 [MLS001198528-01] | 12.2 | -4.9143 | 4.22 |
| CC1=C[C@@H](CNCc2cccnc2)[C@H](C(C)C)C[C@H]1Cc1nnc(-c2ccc(N(C)C)cc2)o1 [NCGC00421481-01] | 34.3 | -4.4643 | 5.31 |
| N=c1ccn(Cc2cccc(Cl)c2)cc1 [MLS000080111-01] | 34.3 | -4.4643 |  |
| O=C(NC1CCN(c2cc(-c3cccs3)n[nH]2)CC1)c1cccc(OC(F)(F)F)c1 [NCGC00437198-01] | 43.2 | -4.3643 |  |
| O=C(Nc1ccc(Cl)cc1)N1CCC(c2nc(-c3ccccc3Cl)no2)CC1 [MLS000529331-01] | 34.3 | -4.4643 |  |
| SC(=Nc1ccncc1)NCc1ccccc1 [MLS001230114-01] | 27.3 | -4.5643 |  |
| CCc1nnc([C@@H]2CC(F)(F)CN2Cc2cccn2C)o1 [NCGC00468656-01] | 13.7 | -4.8643 |  |
| Brc1ccc2[nH]c3c(N4CCc5ccccc5C4)ncnc3c2c1 [MLS000556376-01] | 43.2 | -4.3643 |  |
| CCc1nnc(NC(=O)c2cc(Cl)ccn2)s1 [MLS001175292-01] | 43.2 | -4.3643 |  |
| Cc1nc(C)c(C(=O)N2CC(Oc3ccc(-c4noc(-c5ccccc5)n4)cc3)C2)s1 [NCGC00458037-01] | 30.6 | -4.5143 |  |
| Cc1ccc(NC(=O)C2CCN(c3cc(C(F)(F)F)ncn3)CC2)cc1 [NCGC00455557-01] | 34.3 | -4.4643 |  |
| O=C(Nc1ccc(Oc2cccc(C(F)(F)F)c2)nc1)c1cccs1 [MLS000860613-01] | 17.2 | -4.7643 |  |
| CCC(C(=O)N1CCN(c2cc(-c3cccs3)n[nH]2)CC1)c1ccccc1 (centres unmarked) [NCGC00436744-01] | 43.2 | -4.3643 |  |
| O=C1CCN(Cc2ccc(F)cc2F)CCCC(c2nc(-c3cnccn3)no2)CCN1 (centres unmarked) [NCGC00465975-01] | 12.2 | -4.9143 |  |

| Compound | CC50 at 48 h [1] [µM] | Log AC50 (M) [2] [M] | AC50 [3] [µM] |
| --- | --- | --- | --- |
| CCOC(=O)c1ccc(-c2ccc(/C=C(\C#N)c3nc4cc(C)ccc4[nH]3)o2)cc1 [NCGC00098928-01] | 43.2 | -4.3643 |  |
| O=C(Nc1ccc(Oc2cccnc2)cc1)C1CCN(Cc2cc(Cl)ccc2O)CC1 [MLS001072411-01] | 30.6 | -4.5143 |  |
| OC[C@H]1CCN(Cc2ccc(-c3cccc(Cl)c3Cl)o2)C[C@@H]1O [NCGC00438915-01] | 30.6 | -4.5143 |  |
| Cc1cccc(Cn2nnc3c2C(=O)c2ccccc2C3=O)c1 [MLS000594471-01] | 43.2 | -4.3643 |  |
| CCOC(=O)c1ccc(N2C(=O)c3[nH]nc(-c4ccc(OC)cc4)c3C2c2cccc(O)c2)cc1 (centres unmarked) [NCGC00108527-01] | 43.2 | -4.3643 |  |
| CCN1C(=O)C2(CCN([S+](=O)([O-])c3cc(F)ccc3C)CC2)c2ccccc21 [NCGC00435872-01] | 38.5 | -4.4143 |  |
| Cc1nc(N2CCC(NC(=O)c3cc4ccccc4[nH]3)CC2)cc(C(F)(F)F)n1 [NCGC00455533-01] | 34.3 | -4.4643 |  |
| O=C1CCN(Cc2ccc(C(F)(F)F)cc2)CCCC(c2nc(-c3cccnc3)no2)CCN1 (centres unmarked) [NCGC00465921-01] | 27.3 | -4.5643 |  |
| O=C(N1CCCN(c2cc(-c3ccc(Cl)cc3)n[nH]2)CC1)C1(c2ccccc2)CC1 [NCGC00436184-01] | 43.2 | -4.3643 |  |
| COc1cnc(-c2ccccn2)nc1Oc1ccc(C(C)(C)C)cc1 [MLS001165485-01] | 38.5 | -4.4143 |  |
| CC(=O)N1CCN(c2cc(-c3noc([C@@H]4CCCN4Cc4ccc(C(F)(F)F)cc4)n3)ccn2)CC1 [NCGC00394931-01] | 30.6 | -4.5143 |  |
| Cc1ccc(NC(=O)CSc2n[nH]c(-c3ccccn3)n2)cc1 [MLS001223214-01] | 24.3 | -4.6143 |  |
| C[S+](=O)([O-])N1CCC(OC2CCN(C(=O)Nc3cc(F)ccc3F)CC2)CC1 [NCGC00445092-01] | 43.2 | -4.3643 |  |
| O=C(c1ccco1)N1CCCN(c2cc(-c3ccc(Br)cc3)n[nH]2)CC1 [NCGC00436196-01] | 43.2 | -4.3643 |  |
| CCN(CC)CCCNC(=O)c1ccc2c(c1)sc1nc(-c3ccc(C)cc3)cn12 [NCGC00121667-01] | 43.2 | -4.3643 |  |
| CCCCOc1ccc(-c2nc(C3CC(=O)N(C4CCCCC4)C3)no2)cc1 (centres unmarked) [NCGC00448051-01] | 34.3 | -4.4643 |  |
| OC(CNCCc1ccccc1)COc1ccc(OCC(O)CNCCc2ccccc2)cc1 (centres unmarked) [MLS000769724-01] | 43.2 | -4.3643 |  |
| O=c1c2ccccc2nc2n1CCN2Cc1ccc(Cl)cc1 [MLS000107729-01] | 43.2 | -4.3643 |  |
| CC(=O)c1cn(CCOc2ccc(F)cc2)c2ccccc12 [MLS001205469-01] | 43.2 | -4.3643 |  |
| CC(C(=O)N1CCCN(c2cc(-c3ccc(Cl)cc3)n[nH]2)CC1)c1ccccc1 (centres unmarked) [NCGC00436178-01] | 43.2 | -4.3643 |  |
| CC(C)c1nc(-c2ccc(OC3CCN(C(=O)c4cc(F)ccc4F)C3)cc2)no1 (centres unmarked) [NCGC00441011-01] | 34.3 | -4.4643 |  |
| O=C(C[C@@H]1CCNC[C@@H]1Cc1cc(CC2CCCCC2)on1)NCc1ccccc1 [NCGC00400728-01] | 49.8 | -4.3028 |  |
| O=C(N/N=C/c1ccccn1)c1ccccc1 [MLS000562399-01] | 43.2 | -4.3643 |  |
| COc1ccc(CNc2ncnc3c2[nH]c2ccccc23)cc1 [MLS000768346-01] | 43.2 | -4.3643 |  |
| Cc1cc(=O)n(CC(=O)Nc2cccc(C(F)(F)F)c2)c(N2CCC(C)CC2)n1 [NCGC00432189-01] | 30.6 | -4.5143 |  |
